Values of other authors in patent publication US20190298669A1 (priority 2018, published 2019).

What was measured:
[1] = human, in vivo; cited from earlier work
viral RNP complexes = settings: Pleschka et al., 2001; cited from earlier work

Structure (SMILES) | patients experiencing nausea and vomiting [1] | nuclear cytoplasmic transport of viral RNP complexes (viral RNP complexes)
CCOC(=O)C1=C[C@@H](OC(CC)CC)[C@H](NC(C)=O)[C@@H](N)C1 [oseltamivir] | 10-15% | 
N#CC(=C(/N)Sc1ccccc1N)/C(C#N)=C(\N)Sc1ccccc1N [U0126] |  | leads to a blockade
